Blank lines part the entries; values can stand above or below the molecule they belong to.
Key:
Format in all cases: biochemical
[1] = target: T1, Wild-type GST-GK (Homo sapiens, UniProt P35557); test: Inhibition of glucokinase activity by NAG and MH, Dixon plots; conditions: glucose 2, 5 and 8 mM, 50 nM glucokinase
T1 construct: made in house; host or cells: E. coli
T1 sequence (P35557 1-465): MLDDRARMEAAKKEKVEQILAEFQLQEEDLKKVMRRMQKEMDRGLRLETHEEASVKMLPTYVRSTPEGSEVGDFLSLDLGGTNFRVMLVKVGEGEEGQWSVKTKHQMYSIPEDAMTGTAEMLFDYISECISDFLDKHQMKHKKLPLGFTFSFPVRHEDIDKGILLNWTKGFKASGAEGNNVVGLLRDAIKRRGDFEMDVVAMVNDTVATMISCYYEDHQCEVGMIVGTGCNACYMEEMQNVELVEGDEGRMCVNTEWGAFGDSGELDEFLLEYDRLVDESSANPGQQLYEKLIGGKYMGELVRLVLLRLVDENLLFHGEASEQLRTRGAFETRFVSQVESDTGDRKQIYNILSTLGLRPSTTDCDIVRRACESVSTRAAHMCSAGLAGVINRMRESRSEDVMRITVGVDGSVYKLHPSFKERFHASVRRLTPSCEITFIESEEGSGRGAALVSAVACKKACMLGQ
Protocol: (§1) Glucokinase activity was measured spectrophotometrically on a spectrophotometer Uviconxl (Secoman), using an NADP^+-coupled assay with glucose-6-phosphate dehydrogenase, as described previously. The final reaction mixture contained 100 mM Tris pH 7.4, 150 mM KCl, 1 mM MgCl2, 1.4 mM ß-mercaptoethanol, 0.1% BSA, 5 mM ATP-MgCl2, 1 mM NADP^+, and 1 U/ml glucose-6-phosphate dehydrogenase. Determination of kinetic parameters and thermal stability tests were performed as in [20]. […] Inhibition by NAG and MH was determined under standard assay conditions with 50 nM glucokinase. The inhibition by palmitoylCoA was determined in reaction mixtures containing 25 mM Hepes pH 7.1; 25 mM KCl; 1 mM NADP, 1 mM ATP-MgCl2; 2.5 mM MgCl2; 5 mM ß-mercaptoethanol, 1 U/ml glucose-6-phosphate dehydrogenase and 61 nM glucokinase. Due to the low Kcat value of mutant GST-GK(pAla449Thr), the amount of protein used in inhibition assays was 180 nM to get sufficient activity to allow for accurate determination of the inhibitor effect. In these conditions, GK activity (U/mg of GST-GK(pAla449Thr)) in the absence of inhibitors was 1.3±0.08, 1.1±0.06 and 0.9±0.05 at 2, 1.5 and 1 mM of glucose, respectively for NAG and MH assays and 0.5±0.05, 0.33±0.03 and 0.27±0.03 at 2, 1.5 and 1 mM glucose, respectively for palmitoyl-CoA assay.

[2] = target: T2, GST-GK(p.Gly223Ser) (Homo sapiens, UniProt P35557, G223S); test: as above; conditions: glucose 12.5, 25 and 50 mM
T2 construct: made in house; host or cells: E. coli
T2 sequence (P35557 1-465 G223S): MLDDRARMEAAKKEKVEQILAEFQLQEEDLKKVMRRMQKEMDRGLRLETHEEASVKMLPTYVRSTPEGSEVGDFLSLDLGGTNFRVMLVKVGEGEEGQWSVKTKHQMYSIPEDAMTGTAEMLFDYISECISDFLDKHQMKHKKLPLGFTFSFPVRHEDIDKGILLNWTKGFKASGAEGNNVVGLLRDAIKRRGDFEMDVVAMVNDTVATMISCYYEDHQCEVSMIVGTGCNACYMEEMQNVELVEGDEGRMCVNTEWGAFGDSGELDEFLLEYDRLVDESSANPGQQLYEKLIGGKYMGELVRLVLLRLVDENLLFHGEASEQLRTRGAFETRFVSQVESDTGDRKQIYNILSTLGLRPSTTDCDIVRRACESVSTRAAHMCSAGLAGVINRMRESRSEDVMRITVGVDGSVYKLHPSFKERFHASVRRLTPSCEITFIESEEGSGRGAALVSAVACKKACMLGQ
Protocol: as §1

[3] = target: T3, GST-GK(p.Ala449Thr) (Homo sapiens, UniProt P35557, A449T); test: as above; conditions: for IC50: glucose 1, 1.5 and 2 mM, 180 nM protein
T3 construct: made in house; host or cells: E. coli
T3 sequence (P35557 1-465 A449T): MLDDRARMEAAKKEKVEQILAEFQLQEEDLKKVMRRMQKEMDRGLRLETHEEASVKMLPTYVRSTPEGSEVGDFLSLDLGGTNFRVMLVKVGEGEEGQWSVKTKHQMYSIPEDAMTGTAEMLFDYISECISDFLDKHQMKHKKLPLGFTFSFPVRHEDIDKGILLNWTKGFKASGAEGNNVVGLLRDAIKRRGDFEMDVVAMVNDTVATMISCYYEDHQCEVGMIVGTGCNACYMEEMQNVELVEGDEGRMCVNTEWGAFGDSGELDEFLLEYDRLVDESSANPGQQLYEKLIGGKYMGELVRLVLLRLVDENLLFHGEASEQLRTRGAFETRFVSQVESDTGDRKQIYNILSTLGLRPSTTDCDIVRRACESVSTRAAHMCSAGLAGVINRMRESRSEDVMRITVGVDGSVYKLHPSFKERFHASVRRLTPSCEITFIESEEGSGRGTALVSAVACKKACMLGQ
Protocol: as §1

[4] = target: T1, Wild-type GST-GK; test: Effect of GK synthetic activator on kinetic parameters
Protocol: as §1
(§2) GK activator LY2121260 was kindly provided by Elli Lilly and Co, Indianapolis, IN, USA. A stock solution of 1 mM LY2121260 was prepared in 12.5 mM Hepes pH 7.4 with 80% DMSO. Results are shown as means ± SEM, and statistical significance was analysed by the two-tailed Student's t-test. P values of <0.05 were considered statistically significant. The structural analysis of mutations was carried out using the crystal structure of human GK [18] and visualized using the Pymol Molecular Graphics System (Schrödinger).

[5] = target: T3, GST-GK(p.Ala449Thr); test: as above
Protocol: as §1, §2

[6] = target: T1, Wild-type GST-GK; test: Inhibition of glucokinase activity by palmitoyl-CoA, Dixon plots; conditions: glucose 2, 5 and 8 mM; 61 nM glucokinase; read-out: I50 for palmitoyl-CoA
Protocol: as §1

[7] = target: T2, GST-GK(p.Gly223Ser); test: as above; conditions: glucose 12.5, 25 and 50 mM; read-out: I50 for palmitoyl-CoA
Protocol: as §1

[8] = target: T3, GST-GK(p.Ala449Thr); test: as above
Protocol: as §1

[9] = target: T3, GST-GK(p.Ala449Thr); test: Inhibition of glucokinase activity by human GKRP; conditions: 5 mM glucose; GKRP 0 to 200 nM; 10 µM S6P or 0.2 mM F1P
Protocol: Purified human GKRP was kindly provided by KJ Brocklehurst (Cardiovascular and Gastrointestinal Department, AstraZeneca, Macclesfield, Cheshire SK10 4TG, UK). The effect of GKRP on glucokinase activity was determined as described. The final reaction mixture contained 25 mM Hepes pH 7.1; 25 mM KCl; 1 mM NADP, 1 mM ATP-MgCl2; 2.5 mM MgCl2; 5 mM ß-mercaptoethanol, 1 U/ml glucose-6-phosphate dehydrogenase, 61 nM of GST-GK or 180 nM GST-GK(pAla449Thr), 5 mM glucose, GKRP (0 to 200 nM) and, when indicated, 10 µM sorbitol-6-phosphate (S6P) or 0.2 mM fructose-1-phosphate (F1P). In these conditions, GST-GK(pAla449Thr) activity in the absence of GKRP was 0.8±0.09 U/mg of protein.
Figure 2 Effect of mutation p.Ala449Thr on the GK interaction with GKRP. A) Inhibition of glucokinase activity by human GKRP. Enzyme activity was measured at 5 mM glucose as described in Material and Methods, in the presence of 10 µM S6P (left panel) or 0.2 mM F1P (right panel). Results are means ± SEM for three independent enzyme purifications assayed in triplicate. B) Two-hybrid interaction of GBD-GKRP with GAD-GK or GAD-GK(p.Ala449Thr) mutant. Yeast strain Y187 was used, and fusion proteins were expressed from pGBKT7 and pACTII derivatives. Values are means ± SEM from ß-galactosidase activity of six independent transformants.

Molecule: CS(=O)(=O)c1ccc([C@@]2(C(=O)Nc3nccs3)C[C@H]2C2CCCCC2)cc1 [LY2121260]
Kcat (%) ([4]; 10 µM GK activator, 0.8% DMSO, wild type with buffer = 100): 130.8±3.9 % | increase of Kcat ([4]; 10 µM activator): about 30% | increase of affinity for glucose ([4]; 10 µM activator): about 5 fold | S0.5 for glucose ([5]; 10 µM GK activator, 0.8% DMSO): 3.1 ± 0.3 mM | effect on S0.5 ([5]; 10 µM activator): did not affect

Molecule: O=C(CO)[C@@H](O)[C@@H](O)[C@H](O)[C@H](O)CO [MH, mannoheptulose]
IC50 ([1]; read-out: I50 for MH): 1150 ± 370 µM | IC50 ([2]; read-out: I50 for MH): 3550 ± 630 µM | IC50 ([3]; read-out: I50 for MH): 670 ± 40 µM

B1: GKRP: purified human glucokinase regulatory protein, competitive inhibitor with respect to glucose (protein, UniProt Q14397 1-625, looked up)
Glucokinase regulatory protein: MPGTKRFQHVIETPEPGKWELSGYEAAVPITEKSNPLTQDLDKADAENIVRLLGQCDAEIFQEEGQALSTYQRLYSESILTTMVQVAGKVQEVLKEPDGGLVVLSGGGTSGRMAFLMSVSFNQLMKGLGQKPLYTYLIAGGDRSVVASREGTEDSALHGIEELKKVAAGKKRVIVIGISVGLSAPFVAGQMDCCMNNTAVFLPVLVGFNPVSMARNDPIEDWSSTFRQVAERMQKMQEKQKAFVLNPAIGPEGLSGSSRMKGGSATKILLETLLLAAHKTVDQGIAASQRCLLEILRTFERAHQVTYSQSPKIATLMKSVSTSLEKKGHVYLVGWQTLGIIAIMDGVECIHTFGADFRDVRGFLIGDHSDMFNQKAELTNQGPQFTFSQEDFLTSILPSLTEIDTVVFIFTLDDNLTEVQTIVEQVKEKTNHIQALAHSTVGQTLPIPLKKLFPSIISITWPLLFFEYEGNFIQKFQRELSTKWVLNTVSTGAHVLLGKILQNHMLDLRISNSKLFWRALAMLQRFSGQSKARCIESLLRAIHFPQPLSDDIRAAPISCHVQVAHEKEQVIPIALLSLLFRCSITEAQAHLAAAPSVCEAVRSALAGPGQKRTADPLEILEPDVQ
enzymatic inhibition by GKRP, mutant vs wild type [9]: the same

Now from value to molecule:

IC50 ([1]; read-out: I50 for NAG): 210 ± 40 µM | IC50 ([2]; read-out: I50 for NAG): 380 ± 45 µM | IC50 ([3]; read-out: I50 for NAG): 200 ± 60 µM | effect of mutation on inhibition by NAG ([3]; vs wild type): did not affect the inhibition
Molecule: CC(=O)N[C@@H]1[C@@H](O)[C@H](O)[C@@H](CO)O[C@H]1O [NAG, N-acetylglucosamine]

IC50 [6]: 3.06 ± 0.27 µM | IC50 [7]: 1.42 ± 0.13 µM | decrease of I50 for palmitoyl-CoA vs wild type [8]: ~26% | IC50 ([8]; glucose 1, 1.5 and 2 mM, 180 nM protein, read-out: I50 for palmitoyl-CoA): 2.24 ± 0.14 µM
Molecule: CCCCCCCCCCCCCCCC(=O)SCCNC(=O)CCNC(=O)[C@H](O)C(C)(C)COP(=O)(O)OP(=O)(O)OC[C@H]1O[C@@H](n2cnc3c(N)ncnc32)[C@H](O)[C@@H]1OP(=O)(O)O [palmitoyl-CoA]

Reference: article PMC3265476, “Functional Characterization of MODY2 Mutations Highlights the Importance of the Fine-Tuning of Glucokinase and Its Role in Glucose Sensing” (PLoS ONE, 2012)
